Laboratory results: PMC3531425, “Low Resolution Solution Structure of HAMLET and the Importance of Its Alpha-Domains in Tumoricidal Activity” (PLoS ONE, 2012)

Key:
A549 cells [1] = test: Ca^2+ flux, Fluo-4 NW calcium assay, fluorometry; format: cell-based, human; settings: for Ca^2+ flux, substance alone: HAMLET or sodium oleate alone, Fluo-4, mean of at least two experiments; for Ca^2+ flux, + oleate: peptide mixed with sodium oleate; for Ca^2+ flux, + oleate / Ca^2+ flux, - oleate: Fluo-4 fluorescence; for Ca^2+ flux, - oleate: peptide without sodium oleate
Description: (§1) To quantify the ion fluxes, fluorometry was measured in a plate reader (TECAN infinite F200, Tecan Group, Switzerland). For calcium fluxes measurement, the Fluo-4 NW calcium assay kit (Invitrogen) was used. For K^+ fluxes, the FluxOR™ potassium ion channel assay (Invitrogen) was used according to the manufacturer's instructions but component E was excluded. Briefly, cells were incubated with FluxOR™, which is a Tl^+ indicator. An increase in fluorescence signal corresponds to an influx of Tl^+, indicating opening of potassium channels, which was measured at 535 nm after excitation at 485 nm in the TECAN infinite plate reader. Given the driving force for K^+ flux across the plasma membrane this corresponds to K^+ efflux. Calcium and potassium fluxes was measured in 20 000 A549 cells plated in a 96-well plate. Sodium was measured in 100 000 Jurkat cells using the CoroNa Green Sodium Indicator (Invitrogen).

[2] = test system: lung carcinoma or leukemia cells; test: Tumor cell death (ATP level, PrestoBlue), cell line not given; format: cell-based, human; settings: 3 hours
Description: A549 human lung carcinoma cell line and the Jurkat human acute T-cell leukemia cell line (obtained from ATCC, Manassas, VA, USA) were cultured in RPMI-1640 with non-essential amino acids (1∶100), 1 mM sodium pyruvate (all from PAA, Pasching, Austria), […] Gentamicin (Gibco, Paisley, UK) and 5% fetal calf serum (FCS) at 37°C, 5% CO2. Cells (5*10^5 cells/ml for A549 cells, 1*10^6 cells/ml for Jurkat cells) in suspension were incubated with either […] or peptide-oleate mixtures in serum-free RPMI-1640 at 37°C, 5% CO2. 5% FCS was added after 1 hour. Cell death was quantified by ATP level measurement (ATPlite Kit, PerkinElmer, Waltham, MA, Infinite F200, Tecan Group Ltd., Männedorf, Switzerland) and by using PrestoBlueTM Cell Viability Reagent (Invitrogen, Carlsbad, CA).

[3] = test system: A549 lung carcinoma cells; test: Cell morphology by phase holographic imaging and transmission DIC; format: cell-based, human
Description: For cellular uptake assays, A549 lung carcinoma cells were grown overnight on 8-well chamber slides (Nalge Nunc, Rochester, NY). Cells were incubated 1 hour with 35 μM biotinylated peptide with or without 175 μM sodium oleate (Sigma) in serum free RPMI media, followed by fixation (4% paraformaldehyde) and permeabilization (0.25% Triton X-100, 5% FCS in phosphate-buffered saline). Peptides were visualized by incubation with streptavidin-Alexa568 (Molecular Probes) and Wheat Germ Agglutinin (WGA) (Molecular Probes) was used to visualize plasma and nuclear membranes. Images were captured on a LSM510 META confocal microscope (Carl Zeiss, Jena, Germany) with pinhole settings corresponding to one airy unit. Quantification of fluorescence intensities was performed with the ImageJ software. The HoloMonitorTM M3 digital holographic microscope (Phase Holographic Imaging AB, Lund, Sweden) records 3D information of cells using interfering wave fronts induced by the exposure to a 0.8 mW HeNe laser (633 nm), resembling a Mach-Zender interferometer where the cells, placed in one of the interfering wave fronts, induce a phase difference between the two beams [26]-[28]. The interference pattern (hologram) is recorded on a digital sensor and is used to reconstruct the amplitude and phase of the object as described, [30]. […]

A549 cells [4] = test: K^+ flux, FluxOR potassium ion channel assay (Tl^+ influx), fluorometry; format: cell-based, human; settings: for K^+ flux, substance alone: HAMLET or sodium oleate alone, FluxOR, mean of at least two experiments; for K^+ flux, + oleate: peptide mixed with sodium oleate; for K^+ flux, + oleate / K^+ flux, - oleate: FluxOR fluorescence; for K^+ flux, - oleate: peptide without sodium oleate
Description: as §1

Jurkat cells = test: Na^+ flux, CoroNa Green Sodium Indicator, fluorometry; format: cell-based, human; settings: for Na^+ flux, substance alone: HAMLET or sodium oleate alone, CoroNa Green, mean of at least two experiments; for Na^+ flux, + oleate: peptide mixed with sodium oleate; for Na^+ flux, + oleate / Na^+ flux, - oleate: CoroNa Green fluorescence; for Na^+ flux, - oleate: peptide without sodium oleate
Description: as §1

[5] = Solubility of biotinylated peptide (remark); format: physicochemical; settings: added at 12 µM instead of 105 uM
[6] = test system: glioblastomas, papillomas and bladder cancer; settings: ref [1]–[3]; cited from earlier work
Description: Healthy, differentiated cells are much less sensitive to HAMLET and toxic effects on healthy tissues have not been observed in tumor models.

[7] = Small angle X-ray scattering, state in solution; format: physicochemical; settings: 2.5 and 6.5 mg/ml in phosphate-buffered saline, 15 °C
Description: Small angle X-ray scattering (SAXS) data for HAMLET were collected at the German Electron Synchrotron (DESY) of the EMBL Hamburg using the X33 SAXS camera, [19] located on a bending magnet (sector D) on the storage ring DORIS III. Pilatus 1 M pixel detector (67×420 mm^2) that operates in single photon counting mode was used. A sample - detector distance of 2.4 m which covers the range of momentum transfer 0.1<s<4.5 nm^−1 (s = 4π sin(q)/λ, where q is the scattering angle and λ = 0.15 nm is the X-ray wavelength) was utilized. The calibration of the s-axis was done by the scattering pattern of Silver-behenate salt (d-spacing 5.84 nm). For each sample measurement the scattering from the buffer was measured before and after. The average scattering for the before and after buffer measured was calculated and it is used for background subtraction for each sample. In order to assess and remove any concentration-dependant inter-particle effects for HAMLET, the protein concentrations 2.5 and 6.5 mg/ml in phosphate-buffered saline were used for the measurement. Automated sample-changing robot was used for injecting the protein as well as the buffer samples at the SAXS station X33 [20]. […]
By comparing the forward scattering from the reference solution of bovine serum albumin (BSA), the molecular mass of HAMLET was calculated as described in [18]. […]

Molecule | Ca^2+ flux, substance alone (A549 cells [1]) | Tumor cell killing in the absence of peptide ([2]; sodium oleate alone) | Cell morphology by transmission light DIC, oleate-free peptide or oleate alone ([3]; A549, 1 h) | K^+ flux, substance alone (A549 cells [4]) | Na^+ flux, substance alone (Jurkat cells) | Ca^2+ flux, + oleate (A549 cells [1]) | Ca^2+ flux, - oleate (A549 cells [1]) | K^+ flux, + oleate (A549 cells [4]) | K^+ flux, - oleate (A549 cells [4]) | Na^+ flux, + oleate (Jurkat cells) | Na^+ flux, - oleate (Jurkat cells) | Solubility [5] | Reduction of cell viability ([2]; HAMLET (positive control) or peptide mixed with sodium oleate, cell line not given) [%] | Therapeutic efficacy in vivo [6] | Morphological change by holographic imaging ([3]; adherent A549 cells, HAMLET or peptide-oleate mixture, images every 15 minutes) | Oligomeric state in solution ([7]; SAXS forward scattering vs BSA reference) | Protein aggregation (Guinier plot) ([7]; SAXS)
CCCCCCCC/C=C\CCCCCCCC(=O)O [Sodium oleate, sodium oleate, reference compound] | not observed | did not kill the tumor cells | remain as flat and extended | significant K^+ fluxes | not observed | – | – | – | – | – | – | – | – | – | – | – | –
AAKKILDIKGIDYWL [Peptide 10, 15-amino-acid peptide of α-lactalbumin library] | – | – | – | – | – | weaker Ca^2+ flux | weaker Ca^2+ flux | No | No | Weak Na^+ fluxes | – | – | – | – | – | – | –
AKSSQVPQSRNIADI [Peptide 7, 15-amino-acid peptide of α-lactalbumin library] | – | – | – | – | – | No | No | No | No | No | No | – | – | – | – | – | –
ATEKLEQWLAEKL [Peptide 12, C-terminal peptide of α-lactalbumin library] | – | – | – | – | – | No | No | No | No | No | No | – | – | – | – | – | –
FHTSGYDTQAIVENN [Peptide 4, 15-amino-acid peptide of α-lactalbumin library] | – | – | – | – | – | No | No | No | No | No | No | – | – | – | – | – | –
GLFQISNKLWAKSSQ [Peptide 6, 15-amino-acid peptide of α-lactalbumin library] | – | – | – | – | – | weaker Ca^2+ flux | No | No | No | Weak Na^+ fluxes | – | lower solubility | – | – | – | – | –
IALPELIATMFHTSG [Peptide 3, 15-amino-acid peptide of α-lactalbumin library] | – | – | – | – | – | No | No | No | No | No | No | – | – | – | – | – | –
IDYWLAHKALATEKL [Peptide 11, 15-amino-acid peptide of α-lactalbumin library] | – | – | – | – | – | increased Ca^2+ fluxes and Yes | increased Ca^2+ fluxes and Yes | triggered K^+ fluxes and Yes | triggered K^+ fluxes and Yes | No | No | – | – | – | – | – | –
IVENNESTEYGLFQI [Peptide 5, 15-amino-acid peptide of α-lactalbumin library] | – | – | – | – | – | No | No | No | No | No | No | – | – | – | – | – | –
KQFTKAELSQLLKDI [Peptide 1, 15-amino-acid peptide of α-lactalbumin library, numbered from the N-terminal] | – | – | – | – | – | No | No | triggered K^+ fluxes and Yes | triggered K^+ fluxes and Yes | No | No | – | – | – | – | – | –
LDDDITDDIMAAKKI [Peptide 9, 15-amino-acid peptide of α-lactalbumin library] | – | – | – | – | – | No | No | No | No | No | No | – | – | – | – | – | –
LLKDIDGYGGIALPE [Peptide 2, 15-amino-acid peptide of α-lactalbumin library] | – | – | – | – | – | No | No | No | No | No | No | – | – | – | – | – | –
NIADISADKFLDDDI [Peptide 8, 15-amino-acid peptide of α-lactalbumin library] | – | – | – | – | – | No | No | No | No | No | No | – | – | – | – | – | –
HAMLET (protein) KQFTKCELSQLLKDIDGYGGIALPELICTMFHTSGYDTQAIVENNESTEYGLFQISNKLWCKSSQVPQSRNICDISCDKFLDDDITDDIMCAKKILDIKGIDYWLAHKALCTEKLEQWLCEKL | rapid and sustained | – | – | rapid and sustained | Na^+ fluxes | – | – | – | – | – | – | – | 90 | therapeutic efficacy | increase in cellular optical thickness and a reduction in adherent surface area after 30 minutes, followed by cell detachment at later time points | monomeric | no protein aggregation
